{"source": "patent US9155795B2", "about": "“CXCR4 receptor compounds” (Anchor Therapeutics, Inc., priority 2010, dated 2015)", "note": "Where a SMILES comes first, the peptide text is derived from it. [ ]: non-standard residue; d: D form. The star is where a group is joined. Palmitoyl = CCCCCCCCCCCCCCCC(=O)*; Nle = CCCC[C@H](N)C(=O)O; Pra = C#CC[C@H](N)C(=O)O"}
{"target": "T1, CXCR4 (Homo sapiens, UniProt P61073)", "T1 construct": "CCRF-CEM cells, a human T-cell ALL line that endogenously expresses CXCR4; endogenous in cells; host or cells: CCRF-CEM (human T-cell acute lymphoblastic leukemia line)", "T1 sequence (P61073 whole entry)": "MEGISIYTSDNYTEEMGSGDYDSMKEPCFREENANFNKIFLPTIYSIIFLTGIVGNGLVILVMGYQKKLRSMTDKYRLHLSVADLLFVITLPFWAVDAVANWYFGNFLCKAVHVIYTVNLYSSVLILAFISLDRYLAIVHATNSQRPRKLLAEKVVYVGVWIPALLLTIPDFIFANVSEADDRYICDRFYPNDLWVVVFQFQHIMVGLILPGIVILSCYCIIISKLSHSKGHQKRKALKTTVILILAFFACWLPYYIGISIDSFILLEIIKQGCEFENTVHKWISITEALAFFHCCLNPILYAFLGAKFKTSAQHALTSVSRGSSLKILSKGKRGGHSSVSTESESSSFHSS", "experiment": "Calcium flux assay, agonist mode, Flexstation (CCRF-CEM cells)", "format": "cell-based", "settings": "CCRF-CEM, percent of maximum response compared with SDF-1α, read-out: % Intrinsic Activity", "text": "Calcium Flux Assay is one of the most popular cell-based GPCR functional assays. It most often uses calcium sensing fluorescent dyes such as fura2 AM, fluo-4 and Calcium-4 to measure changes in intracellular calcium concentration. It is used mainly to detect GPCR signaling via Gαq subunit. Activation of these Gq-coupled GPCRs leads to activation of phospholipase C, which subsequently leads to increase in inositol phosphate production. IP3 receptors on endoplasmic reticulum sense the change then release calcium into cytoplasm. Intracellular calcium binding to the fluorescent dyes can be detected by instruments that quantify fluorescent intensities, such as FLIPR Tetra, Flexstation (MDS) and FDSS (Hamamatsu). In addition, to assess Gq-couple receptor signaling, a calcium flux assay can also be used to study Gs and Gi couple receptors by co-expressing CNG (cyclic nucleotide gated calcium channel) or chimeric G-proteins (Gqi5, Gsi5 for example). Activation of some Gi-coupled receptors can also be detected by calcium flux assay via Gβγ mediated phospholipase C activation.\nThe calcium flux assay was used to assess the test compounds' ability to activate the CXCR4 receptor in CCRF-CEM cells (human T lymphoblasts from acute lymphoblastic leukemia). […] After dye loading by incubating with Calcium-4 dye at 37° C. for 1 hour, cell plates were read at 37° C. using the using the Flexstation 3 workstation. Receptor activation was assessed by measuring changes in fluorescent intensity after the addition of the test compounds or the reference agonist SDF-1α on the using the Flexstation 3 workstation. EC50\nand percent intrinsic actively were derived from the data collected. Intrinsic activity refers to the efficacy of the test compound and is calculated as the percent of maximum response compared with the response of the reference standard (i.e., natural agonist, SDF-1α).", "units": {"Emax": "%"}}
{"smiles": "C#CC[C@H](NC(=O)CCCCCCCCCCCCCCC)C(=O)NCC(=O)N[C@@H](Cc1ccc(O)cc1)C(=O)N[C@@H](CCC(N)=O)C(=O)N[C@@H](CCCCN)C(=O)N[C@@H](CCCCN)C(=O)N[C@@H](CC(C)C)C(=O)N[C@@H](CCCNC(=N)N)C(=O)N[C@@H](CO)C(=O)N[C@@H](CCSC)C(=O)N[C@H](C(=O)N[C@@H](CC(=O)O)C(=O)N[C@@H](CCCCN)C(=O)N[C@@H](Cc1ccc(O)cc1)C(=O)N[C@@H](CCCNC(=N)N)C(=O)N[C@@H](CC(C)C)C(N)=O)[C@@H](C)O", "note": "[Compound 24] (Palmitoyl-[Pra]GYQKKLRSMTDKYRL-NH2; C-terminus assumed)", "Emax": 76.6}
{"smiles": "CCCCCCCCCCCCCCCC(=O)N[C@@H](CCSC)C(=O)NCC(=O)N[C@@H](Cc1ccc(O)cc1)C(=O)N[C@@H](CCC(N)=O)C(=O)N[C@@H](CCCCN)C(=O)N[C@@H](CCCCN)C(=O)N[C@@H](CC(C)C)C(=O)N[C@@H](CCCNC(=N)N)C(=O)N[C@@H](CO)C(=O)N[C@@H](CCSC)C(=O)N[C@H](C(=O)N[C@@H](CC(=O)O)C(=O)N[C@@H](CCCCN)C(=O)N[C@@H](Cc1ccc(O)cc1)C(=O)N[C@@H](CCCNC(=N)N)C(=O)N[C@@H](CCCC)C(N)=O)[C@@H](C)O", "note": "[Compound 12] (Palmitoyl-MGYQKKLRSMTDKYR[Nle]-NH2; C-terminus assumed)", "Emax": 73.2}
{"smiles": "CCCCCCCCCCCCCCCC(=O)NCC(=O)NCC(=O)N[C@@H](Cc1ccc(O)cc1)C(=O)N[C@@H](CCC(N)=O)C(=O)N[C@@H](CCCCN)C(=O)N[C@@H](CCCCN)C(=O)N[C@H](CC(C)C)C(=O)N[C@@H](CCCNC(=N)N)C(=O)N[C@@H](CO)C(=O)N[C@@H](C)C(=O)N[C@H](C(=O)N[C@@H](CC(=O)O)C(=O)N[C@@H](CCCCN)C(=O)N[C@@H](Cc1ccc(O)cc1)C(=O)N[C@@H](CCCNC(=N)N)C(=O)N[C@@H](CC(C)C)C(N)=O)[C@@H](C)O", "note": "[Compound 39] (Palmitoyl-GGYQKK[dL]RSATDKYRL-NH2; C-terminus assumed)", "Emax": 104}
{"smiles": "CCCCCCCCCCCCCCCC(=O)NCC(=O)NCC(=O)N[C@@H](Cc1ccc(O)cc1)C(=O)N[C@@H](CCC(N)=O)C(=O)N[C@@H](CCCCN)C(=O)N[C@@H](CCCCN)C(=O)N1CCC[C@@H]1C(=O)N[C@@H](CCCNC(=N)N)C(=O)N1CCC[C@@H]1C(=O)N[C@@H](C)C(=O)N[C@H](C(=O)N[C@@H](CC(=O)O)C(=O)N[C@@H](CCCCN)C(=O)N[C@@H](Cc1ccc(O)cc1)C(=O)N[C@@H](CCCNC(=N)N)C(=O)N[C@@H](CC(C)C)C(N)=O)[C@@H](C)O", "note": "[Compound 28] (Palmitoyl-GGYQKK[dP]R[dP]ATDKYRL-NH2; C-terminus assumed)", "Emax": 107}
{"smiles": "CCCCCCCCCCCCCCCC(=O)NCC(=O)N[C@@H](Cc1ccc(O)cc1)C(=O)N[C@@H](CCC(N)=O)C(=O)N[C@@H](CCCCN)C(=O)N[C@@H](CCCCN)C(=O)N[C@@H](CC(C)C)C(=O)N[C@@H](CCCNC(=N)N)C(=O)N[C@@H](CO)C(=O)N[C@@H](CCCC)C(=O)N[C@H](C(=O)N[C@@H](CC(=O)O)C(=O)N[C@@H](CCCCN)C(=O)N[C@@H](Cc1ccc(O)cc1)C(=O)N[C@@H](CCCNC(=N)N)C(=O)N[C@H](C(N)=O)[C@@H](C)CC)[C@@H](C)O", "note": "[Compound 20] (Palmitoyl-GYQKKLRS[Nle]TDKYRI-NH2; C-terminus assumed)", "Emax": 62.5}
{"smiles": "CCCCCCCCCCCCCCCC(=O)NCC(=O)NCC(=O)N[C@@H](Cc1ccc(O)cc1)C(=O)N[C@@H](CCC(N)=O)C(=O)N[C@@H](CCCCN)C(=O)N[C@@H](CCCCN)C(=O)N[C@@H](CC(C)C)C(=O)N[C@@H](CCCNC(=N)N)C(=O)N1CCC[C@@H]1C(=O)N[C@@H](C)C(=O)N[C@H](C(=O)N[C@@H](CC(=O)O)C(=O)N[C@@H](CCCCN)C(=O)N[C@@H](Cc1ccc(O)cc1)C(=O)N[C@@H](CCCNC(=N)N)C(=O)N[C@@H](CC(C)C)C(N)=O)[C@@H](C)O", "note": "[Compound 27] (Palmitoyl-GGYQKKLR[dP]ATDKYRL-NH2; C-terminus assumed)", "Emax": 111}
